Data as given in US8629164B2, “Inhibitors of NF-κB” (Profectus Biosciences, Inc., priority 2009, dated 2014).

Tests used:
[1] = target: T1, RelB (Homo sapiens, UniProt Q01201); test: TransAM NF-κB Family DNA Binding ELISA, RelB; details: for inhibition at 5 µM: read-out: RelB binding % inhibit. at 5 uM, at 5 uM
T1 sequence (Q01201 1-579): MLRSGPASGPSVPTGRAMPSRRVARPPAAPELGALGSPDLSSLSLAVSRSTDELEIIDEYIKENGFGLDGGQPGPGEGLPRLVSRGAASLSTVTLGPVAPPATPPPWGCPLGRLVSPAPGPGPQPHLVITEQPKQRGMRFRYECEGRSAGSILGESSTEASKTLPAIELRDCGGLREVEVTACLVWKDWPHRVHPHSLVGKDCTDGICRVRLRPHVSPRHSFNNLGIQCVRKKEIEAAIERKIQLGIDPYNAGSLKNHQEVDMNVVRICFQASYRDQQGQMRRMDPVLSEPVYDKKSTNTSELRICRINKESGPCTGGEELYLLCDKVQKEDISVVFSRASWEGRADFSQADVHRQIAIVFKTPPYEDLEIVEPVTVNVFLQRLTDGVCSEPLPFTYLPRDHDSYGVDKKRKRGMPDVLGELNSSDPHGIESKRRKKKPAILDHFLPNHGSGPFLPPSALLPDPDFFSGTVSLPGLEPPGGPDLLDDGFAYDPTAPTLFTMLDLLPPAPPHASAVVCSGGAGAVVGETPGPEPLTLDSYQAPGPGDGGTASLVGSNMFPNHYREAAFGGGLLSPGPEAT
T1 sequence (Q00653 1-454 partner limits assumed): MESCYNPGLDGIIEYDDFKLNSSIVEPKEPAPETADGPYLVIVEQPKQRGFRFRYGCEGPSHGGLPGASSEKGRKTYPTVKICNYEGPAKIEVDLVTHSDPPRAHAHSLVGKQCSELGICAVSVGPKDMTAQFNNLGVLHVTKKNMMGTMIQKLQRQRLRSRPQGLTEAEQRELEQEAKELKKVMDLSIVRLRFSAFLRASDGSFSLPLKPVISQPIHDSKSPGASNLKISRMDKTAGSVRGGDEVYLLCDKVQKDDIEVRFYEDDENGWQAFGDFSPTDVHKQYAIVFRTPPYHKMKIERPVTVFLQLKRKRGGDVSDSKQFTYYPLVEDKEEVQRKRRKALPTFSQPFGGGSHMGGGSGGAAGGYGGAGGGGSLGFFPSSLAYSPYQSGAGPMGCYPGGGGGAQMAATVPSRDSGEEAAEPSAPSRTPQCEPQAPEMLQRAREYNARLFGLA
Protocol: (§2) Treated samples were then transferred to 30 μL Complete Binding Buffer (with DTT) in microplate wells pre-coated with the NF-κB consensus oligonucleotide. […] The plate was incubated for 1 hour at room temperature with gentle shaking and then washed 3 times with 200 μL 1× Wash Buffer. NF-κB p65, p50, p52, RelB, or c-Rel subunits bound to the plate were detected with 100 μL of the primary antibody (diluted 1:1000 in 1× Antibody Buffer) specific for that subunit. The plate was incubated for 1 hour at room temperature and then washed 3 times with 200 μL 1× Wash Buffer. Next, 100 μL of a HRP conjugated goat anti-rabbit antibody (diluted 1:1,000 in 1× Antibody Buffer) was added to each well. The plate was incubated for 1 hour at room temperature and then washed 4 times with 200 μL 1× Wash Buffer. 100 μL of room temperature Developing Solution was added to each well. The reaction was allowed to develop for 2-10 minutes until a medium dark blue color developed (depending on the subunit activity in the lot of extract or lot of recombinant protein used) and then the reaction was stopped with 100 μL Stop Solution yielding a yellow color. Absorbance was recorded using a Becton-Dickinson DTX 880 Multimode Detector at 450 nm with a reference wavelength subtracted at 620 nm.

[2] = test system: IL-6 release from RAW264.7 cells; test: IL-6 release from LPS stimulated RAW264.7 cells; type: cell-based, mouse; details: Mus musculus, RAW264.7, RAW 264.7 cells
Protocol: Specifically, A and B show the effects of the compound of Example 1 on soluble PGE2 and Il-6 secretion from RAW264.7 cells stimulated by 1 μg/mL of LPS. The cells were treated with the indicated concentrations of the compound of Example 1 for 2 hours, and then LPS was added and incubation continued for 4 hours. […]

[3] = test system: NF-κB; test: 293-cell pNF-κB-luc reporter assay, TNF-α induced; type: cell-based; details: HEK293 cells, NF-κB driven luciferase expression; read-out: 293/NFkB-luc EC50
Protocol: (§1) Inhibition of NF-κB in cells by the compound of Example 1. Two reporter cell assays were used to determine the ability of the compound of Example 1 to inhibit NE-KB driven transcription. The first assay was a 293-cell based assay with a stably integrated pNF-κB-luc reporter plasmid containing 3 NF-κB promoter elements. The second assay was a 293-cell based assay with a stably integrated pTRH1-NF-κB-dscGFP reporter containing 4 NF-κB promoter elements. Cells were treated with 0, 0.2, 1, 10, 20 and 40 μM of the compound of Example 1 for 2 hours then were induced with 20 ng/ml TNF-α for 18 hours. Following the induction, luminescence or fluorescence was quantified using a Beckman-Coulter 2300 plate reader. […] These values represent the median value generated from three independent experiments±the standard error. As a control, 0.5% DMSO treated and untreated cells were compared to verify that the Example 1 carrier had no effect on the expression of luciferase or in the readout of the assay. There was a slight decrease in the output from the assay in the DMSO treated population although it was not statistically significant. As a result of the controls, the decrease in activity in the drug treated samples was compared to the DMSO control sample.

[4] = target: T2, p50 (Homo sapiens, UniProt P19838); test: TransAM NF-κB Family DNA Binding ELISA, p50; details: for inhibition at 5 µM: read-out: p50 binding % inhibit. at 5 uM; for IC50: p50 binding IC50 (uM), cells without % sign
T2 sequence (P19838 1-433 limits assumed): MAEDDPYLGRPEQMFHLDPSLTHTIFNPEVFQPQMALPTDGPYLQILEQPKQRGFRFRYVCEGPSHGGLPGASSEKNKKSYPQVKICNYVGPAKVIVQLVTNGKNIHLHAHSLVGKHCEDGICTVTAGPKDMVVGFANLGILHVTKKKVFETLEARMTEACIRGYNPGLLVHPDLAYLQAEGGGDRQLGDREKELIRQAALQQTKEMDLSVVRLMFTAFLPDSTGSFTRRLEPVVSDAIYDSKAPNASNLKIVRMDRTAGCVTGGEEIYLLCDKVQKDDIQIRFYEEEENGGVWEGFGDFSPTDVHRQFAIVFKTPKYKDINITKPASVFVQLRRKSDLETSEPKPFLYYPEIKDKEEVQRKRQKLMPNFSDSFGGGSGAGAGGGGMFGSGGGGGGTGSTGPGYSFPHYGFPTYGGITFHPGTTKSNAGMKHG
Protocol: as §2

[5] = test system: PGE2 release from RAW264.7 cells; test: PGE2 release from LPS stimulated RAW264.7 cells; type: cell-based, mouse; details: Mus musculus, RAW264.7, RAW 264.7 cells
Protocol: Specifically, A and B show the effects of the compound of Example 1 on soluble PGE2 and Il-6 secretion from RAW264.7 cells stimulated by 1 μg/mL of LPS. The cells were treated with the indicated concentrations of the compound of Example 1 for 2 hours, and then LPS was added and incubation continued for 4 hours.
LPS stimulation induces the expression of COX-2 the enzyme responsible for prostaglandin E2.

[6] = test system: NF-κB; test: 293-cell pTRH1-NF-κB-dscGFP reporter assay, TNF-α induced; type: cell-based; details: Homo sapiens, HEK293, HEK293 cells, NF-κB driven GFP expression; read-out: NF-kB/293/GFP EC50
Protocol: as §1

[7] = target: p65 (RelA) (Homo sapiens, UniProt Q04206); test: TransAM NF-κB Family DNA Binding ELISA, p65; details: p65 binding IC50 (uM), binding to NF-κB sites
Protocol: as §2

[8] = target: T3, c-Rel (Homo sapiens, UniProt Q04864); test: TransAM NF-κB Family DNA Binding ELISA, c-Rel; details: for inhibition at 5 µM: read-out: c-Rel binding % inhibit. at 5 uM, at 5 uM
T3 sequence (Q04864 2-619 limits assumed): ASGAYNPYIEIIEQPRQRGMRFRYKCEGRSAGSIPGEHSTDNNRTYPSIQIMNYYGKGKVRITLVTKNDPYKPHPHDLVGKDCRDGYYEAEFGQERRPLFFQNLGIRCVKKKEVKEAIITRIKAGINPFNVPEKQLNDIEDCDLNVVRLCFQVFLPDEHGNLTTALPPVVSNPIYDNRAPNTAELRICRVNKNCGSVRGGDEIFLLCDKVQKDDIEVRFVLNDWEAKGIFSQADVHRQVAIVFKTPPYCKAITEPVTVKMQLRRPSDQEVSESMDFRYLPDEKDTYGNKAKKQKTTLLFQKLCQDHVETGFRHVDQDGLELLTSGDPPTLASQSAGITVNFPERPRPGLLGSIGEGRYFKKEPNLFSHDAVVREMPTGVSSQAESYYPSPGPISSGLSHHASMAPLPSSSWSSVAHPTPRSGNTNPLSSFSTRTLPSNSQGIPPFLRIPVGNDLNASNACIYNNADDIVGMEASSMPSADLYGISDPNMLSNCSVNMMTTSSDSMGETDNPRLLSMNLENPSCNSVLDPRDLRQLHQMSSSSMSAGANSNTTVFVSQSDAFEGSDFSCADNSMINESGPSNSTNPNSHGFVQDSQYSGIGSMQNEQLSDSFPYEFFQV
Protocol: as §2

[9] = target: T4, p52 (Homo sapiens, UniProt Q00653); test: TransAM NF-κB Family DNA Binding ELISA, p52; details: for inhibition at 5 µM: read-out: p52 binding % inhibit. at 5 uM, at 5 uM; for IC50: p52 binding IC50 (uM), cells without % sign
T4 sequence (Q00653 1-454 limits assumed): T1 sequence (Q00653 1-454 partner limits assumed)
Protocol: as §2

[10] = test system: collagen-induced arthritis; test: Mouse model of collagen-induced rheumatoid arthritis (CIA)
From the text: Male DBA mice developed arthritis by injecting bovine CII collagen in tails at day 1 and day 21.

p65 (RelA), sequence (Q04206 whole entry): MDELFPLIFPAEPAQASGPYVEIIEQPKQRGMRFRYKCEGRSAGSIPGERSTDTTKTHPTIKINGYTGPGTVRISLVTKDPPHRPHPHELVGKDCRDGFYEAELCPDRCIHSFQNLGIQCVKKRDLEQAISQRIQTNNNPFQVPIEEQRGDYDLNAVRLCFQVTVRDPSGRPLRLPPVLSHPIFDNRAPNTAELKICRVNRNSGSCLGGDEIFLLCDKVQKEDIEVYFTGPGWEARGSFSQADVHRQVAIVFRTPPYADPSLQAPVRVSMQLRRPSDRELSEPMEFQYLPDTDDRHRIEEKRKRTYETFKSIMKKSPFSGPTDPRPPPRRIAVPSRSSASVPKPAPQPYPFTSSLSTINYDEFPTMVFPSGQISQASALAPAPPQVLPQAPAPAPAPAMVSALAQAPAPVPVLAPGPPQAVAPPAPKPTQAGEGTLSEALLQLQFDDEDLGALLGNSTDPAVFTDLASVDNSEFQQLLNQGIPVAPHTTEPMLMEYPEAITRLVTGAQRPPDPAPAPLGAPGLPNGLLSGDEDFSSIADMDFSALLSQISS

Compound | inhibition at 5 µM [1] [%] | EC50 [2] [µM] | EC50 [3] [µM] | inhibition at 5 µM [4] [%] | EC50 [5] [µM] | EC50 [6] [µM] | IC50 [7] [µM] | inhibition at 5 µM [8] [%] | inhibition at 5 µM [9] [%] | IC50 [4] [µM] | IC50 [9] [µM] | anti-inflammation effects vs vehicle treated group ([10]; Example 2 15 mg/kg s.c. qd 21-35, etanercept 50 ug/mouse ip qd 21-35, P<0.05) | histological evaluation of joints ([10]; day 35) | myeloperoxidase activities ([10]; mouse, in vivo) | IC50 ([1]; RelB binding IC50 (uM), cells without % sign) [µM] | IC50 ([8]; c-Rel binding IC50 (uM), cells without % sign) [µM]
Cc1ccc(C(=O)NC2=CC(=O)C3OC3C2O)c(O)n1 (racemic) [Example 10, (±)-2-hydroxy-N-(2-hydroxy-5-oxo-7-oxa-bicyclo[4.1.0]hept-3-en-3-yl)-6-methyl-nicotinamide] | 27 | < 0.24 | 19 | 6 | 1.1 | 4.5 | 2.8 | 54 | 11 | – | – | – | – | – | – | –
O=C(NC1=CC(=O)C2OC2C1O)c1nc2ccccc2nc1O (racemic) [Example 9, (±)-3-hydroxy-quinoxaline-2-carboxylic acid (2-hydroxy-5-oxo-7-oxa-bicyclo[4.1.0]hept-3-en-3-yl)-amide] | 22 | 7.4 | 14 | 11 | 23.6 | 20 | 7.2 | 44 | 22 | – | – | – | – | – | – | –
O=C(NC1=CC(=O)C2OC2C1O)c1cnc2ccc(Cl)cc2c1O (racemic) [Example 5, (±)-6-chloro-4-hydroxy-quinoline-3-carboxylic acid-(2-hydroxy-5-oxo-7-oxa-bicyclo[4.1.0]hept-3-en-3-yl)-amide] | 0 | 0.43 | > 38 | – | 6.5 | > 38 | 230 | 12 | – | > 481 | > 481 | – | – | – | – | –
etanercept [reference compound] | – | – | – | – | – | – | – | – | – | – | – | statistal significant anti-inflammation effects | significant reduction of inflammation | concomitant reduction | – | –
O=C(NC1=CC(=O)C2OC2C1O)c1cnc2c(C(F)(F)F)cccc2c1O (racemic) [Example 6, (±)-4-hydroxy-8-trifluoromethyl-quinoline-3-carboxylic acid-(2-hydroxy-5-oxo-7-oxa-bicyclo[4.1.0]hept-3-en-3-yl)-amide] | 13 | 0.9 | 18 | 0 | 6.2 | 3.4 | 3.3 | 27 | 7 | – | – | – | – | – | – | –
O=C(NC1=CC(=O)C2OC2C1O)c1cnc(-c2ccccc2)nc1O (racemic) [Example 8, (±)-4-hydroxy-2-phenylpyrimidine-5-carboxylic acid (2-hydroxy-5-oxo-7-oxa-bicyclo[4.1.0]hept-3-en-3-yl)-amide] | 21 | 2.2 | 37 | 16 | 26.2 | 10 | – | 46 | 17 | – | – | – | – | – | – | –
O=C(NC1=CC(=O)C2OC2C1O)c1nc2ccccc2cc1O (racemic) [Example 15, (±)-3-hydroxy-quinoline-2-carboxylic acid-(2-hydroxy-5-oxo-7-oxa-bicyclo[4.1.0]hept-3-en-3-yl)-amide] | 0 | 1 | 11 | 0 | – | 4.9 | 488 | 6 | 0 | – | – | – | – | – | – | –
COc1ncccc1C(=O)NC1=CC(=O)C2OC2C1O (racemic) [Example 16, (±)-N-(2-hydroxy-5-oxo-7-oxa-bicyclo[4.1.0]hept-3-en-3-yl)-2-methoxy-nicotinamide] | – | 0.64 | 7.1 | – | – | 1.2 | 0.88 | – | – | 20 | 3.7 | – | – | – | 1.7 | 0.8
O=C(NC1=CC(=O)C2OC2C1O)c1cc(Cl)cnc1O (racemic) [Example 7, (±)-5-chloro-2-hydroxy-N-(2-hydroxy-5-oxo-7-oxa-bicyclo[4.1.0]hept-3-en-3-yl)-nicotinamide] | 32 | 0.73 | 15 | 19 | 6.8 | 3.2 | 3.6 | 63 | 16 | – | – | – | – | – | – | –
